Test results: ChEMBL document CHEMBL1201862, “PubChem BioAssay data set” (2004)
Structures can show the parent of a compound that is named as a salt.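 Test compounds were applied to cells in 96-well plates for 48 hours at 5 doses. Here, GI50 denotes the concentration required for 50% inhibition of growth.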 Activity calls are given as the source filed them. Rule as the data show it: active = GI50 up to about 1.1 µM and inactive = higher.

Key:
Experiment in all cases: growth of human tumour cells (NCI), 48 h
ACHN = system: ACHN
CAKI-1 = system: CAKI-1
BT-549 = system: BT-549
MDA-MB-231 = system: MDA-MB-231
EKVX = system: EKVX
SK-MEL-5 = system: SK-MEL-5
NCI/ADR-RES = system: NCI/ADR-RES
OVCAR-5 = system: OVCAR-5
SK-OV-3 = system: SK-OV-3
OVCAR-8 = system: OVCAR-8
Hs-578T = system: Hs-578T
A498 = system: A498
MDA-N = system: MDA-N
NCI-H460 = system: NCI-H460
SF-295 = system: SF-295
IGROV-1 = system: IGROV-1
SNB-75 = system: SNB-75
SK-MEL-2 = system: SK-MEL-2
OVCAR-4 = system: OVCAR-4
HCC 2998 = system: HCC 2998

Measured: GI50

Cc1ccc2c(O)cc(-c3csc4ccccc34)nc2n1
active: ACHN < 0.01 µM | CAKI-1 < 0.01 µM | BT-549 0.0183 µM | MDA-MB-231 0.021 µM | EKVX 0.0344 µM | SK-MEL-5 < 0.0112 µM | NCI/ADR-RES < 0.01 µM | OVCAR-5 0.0358 µM | SK-OV-3 < 0.01 µM | OVCAR-8 0.0202 µM | Hs-578T 0.0101 µM | A498 < 0.01 µM | MDA-N < 0.01 µM | NCI-H460 < 0.0161 µM | SF-295 < 0.01 µM | IGROV-1 0.0362 µM | SNB-75 < 0.01 µM | SK-MEL-2 0.0139 µM

COc1cc(C(CN)N(C)C)cc(OC)c1OC (configuration not stated)
inactive: OVCAR-4 > 100 µM | ACHN > 100 µM | CAKI-1 > 100 µM | BT-549 > 100 µM | MDA-MB-231 > 100 µM | EKVX > 100 µM | SK-MEL-5 > 100 µM | NCI/ADR-RES > 100 µM | OVCAR-5 > 100 µM | SK-OV-3 > 100 µM | OVCAR-8 > 100 µM | Hs-578T > 100 µM | A498 > 100 µM | MDA-N > 100 µM | NCI-H460 > 100 µM | HCC 2998 > 100 µM | SF-295 > 100 µM | IGROV-1 > 100 µM

O=C(O)C1C(C(=O)O)C(C(=O)O)C1C(=O)O (configuration not stated)
inactive: OVCAR-4 > 100 µM | ACHN > 100 µM | CAKI-1 > 100 µM | BT-549 > 100 µM | MDA-MB-231 > 100 µM | EKVX > 100 µM | SK-MEL-5 > 100 µM | NCI/ADR-RES > 100 µM | OVCAR-5 > 100 µM | SK-OV-3 > 100 µM | OVCAR-8 > 100 µM | Hs-578T > 100 µM | A498 > 100 µM | MDA-N > 100 µM | NCI-H460 > 100 µM | SF-295 > 100 µM | IGROV-1 > 100 µM | SNB-75 > 100 µM | SK-MEL-2 > 100 µM

CC1=C(C)C1[N+](=O)[O-]
inactive: OVCAR-4 > 100 µM | ACHN > 100 µM | CAKI-1 > 100 µM | BT-549 > 100 µM | MDA-MB-231 > 100 µM | EKVX > 100 µM | SK-MEL-5 > 100 µM | NCI/ADR-RES > 100 µM | OVCAR-5 > 100 µM | SK-OV-3 > 100 µM | OVCAR-8 > 100 µM | Hs-578T > 100 µM | A498 97.7 µM | MDA-N > 100 µM | NCI-H460 > 100 µM | HCC 2998 > 100 µM | SF-295 > 100 µM | IGROV-1 > 100 µM | SNB-75 26.1 µM

COC(=O)c1c(O)ccc2c1c1cc3ccccc3c(O)c1n2CCc1ccc(OC)c(OC)c1
inactive: OVCAR-4 42.1 µM | ACHN 83.4 µM | CAKI-1 68.7 µM | BT-549 16.7 µM | MDA-MB-231 > 100 µM | EKVX > 100 µM | SK-MEL-5 26.2 µM | NCI/ADR-RES 51.6 µM | OVCAR-5 > 100 µM | SK-OV-3 > 100 µM | OVCAR-8 63.4 µM | Hs-578T 31.4 µM | A498 > 100 µM | MDA-N 57.7 µM | NCI-H460 20.9 µM | HCC 2998 27.4 µM | SF-295 96.8 µM | IGROV-1 42.2 µM | SK-MEL-2 58.2 µM

CC(=O)C1=CC=C/C1=N\Nc1ccccc1
inactive: OVCAR-4 5.71 µM | ACHN 11.2 µM | CAKI-1 3.91 µM | BT-549 11 µM | MDA-MB-231 10 µM | EKVX 5.6 µM | SK-MEL-5 15.6 µM | NCI/ADR-RES 5.28 µM | OVCAR-5 7 µM | SK-OV-3 16.6 µM | OVCAR-8 9.73 µM | Hs-578T 4.48 µM | MDA-N 6.22 µM | NCI-H460 11.6 µM | HCC 2998 6.07 µM | SF-295 11.8 µM | IGROV-1 7.4 µM | SNB-75 9.33 µM | SK-MEL-2 13.4 µM

COc1ccc2c(c1O)[C@@]13C=C(O)C(=O)C=C1[C@@H](C2)N(C)CC3
inactive: OVCAR-4 62.4 µM | ACHN 43.6 µM | CAKI-1 88.5 µM | BT-549 > 100 µM | MDA-MB-231 > 100 µM | EKVX > 100 µM | SK-MEL-5 60.3 µM | NCI/ADR-RES 51.9 µM | OVCAR-5 > 100 µM | SK-OV-3 > 100 µM | OVCAR-8 51.9 µM | Hs-578T 59.3 µM | MDA-N 47 µM | NCI-H460 63.4 µM | HCC 2998 > 100 µM | SF-295 > 100 µM | IGROV-1 61.1 µM | SNB-75 54 µM | SK-MEL-2 47.9 µM

OC1c2ccccc2CCC1CN1CCN(CCOC(c2ccc(F)cc2)c2ccc(F)cc2)CC1 (configuration not stated)
inactive: OVCAR-4 50.5 µM | ACHN 21.6 µM | CAKI-1 25.1 µM | BT-549 12.4 µM | MDA-MB-231 13.8 µM | SK-MEL-5 4.79 µM | NCI/ADR-RES 11.2 µM | SK-OV-3 94.8 µM | OVCAR-8 14.3 µM | Hs-578T 17.9 µM | A498 12.3 µM | MDA-N 15.8 µM | NCI-H460 15.4 µM | HCC 2998 4.79 µM | SF-295 18 µM | IGROV-1 17.9 µM | SNB-75 20.3 µM | SK-MEL-2 16.6 µM

Cc1ccc(S(=O)(=O)NC2C(=O)c3ccccc3C(=O)C2n2cnc3ccccc32)cc1 (configuration not stated)
active: HCC 2998 0.906 µM
inactive: OVCAR-4 2.19 µM | ACHN 24.3 µM | CAKI-1 60 µM | BT-549 28.8 µM | MDA-MB-231 17.9 µM | EKVX 34.3 µM | SK-MEL-5 13.1 µM | NCI/ADR-RES 22.1 µM | OVCAR-5 > 100 µM | SK-OV-3 66.5 µM | OVCAR-8 29.4 µM | Hs-578T 51.6 µM | MDA-N 19.4 µM | NCI-H460 19.5 µM | SF-295 37.8 µM | IGROV-1 16.8 µM | SNB-75 30.3 µM | SK-MEL-2 14.7 µM

COC(NC(N)=O)C(=O)O (configuration not stated)
inactive: OVCAR-4 > 100 µM | ACHN > 100 µM | CAKI-1 > 100 µM | BT-549 > 100 µM | MDA-MB-231 > 100 µM | EKVX > 100 µM | SK-MEL-5 > 100 µM | NCI/ADR-RES > 100 µM | OVCAR-5 > 100 µM | SK-OV-3 > 100 µM | OVCAR-8 > 100 µM | Hs-578T > 100 µM | A498 > 100 µM | MDA-N > 100 µM | NCI-H460 > 100 µM | SF-295 > 100 µM | IGROV-1 > 100 µM | SNB-75 > 100 µM | SK-MEL-2 > 100 µM

Brc1ccc(C2=NCSC(c3ccc(Br)cc3)=N2)cc1
inactive: OVCAR-4 41.9 µM | ACHN 21.7 µM | CAKI-1 7.98 µM | BT-549 52.8 µM | MDA-MB-231 68.9 µM | EKVX 11.6 µM | SK-MEL-5 25.2 µM | NCI/ADR-RES 30.5 µM | OVCAR-5 76 µM | SK-OV-3 43.1 µM | OVCAR-8 37.8 µM | Hs-578T 44.1 µM | MDA-N 20.1 µM | NCI-H460 18.4 µM | HCC 2998 23 µM | SF-295 26.9 µM | IGROV-1 33.2 µM | SNB-75 24.3 µM | SK-MEL-2 16.6 µM

O=c1oc2ccc(Cl)cc2cc1-c1cn2ccccc2n1
inactive: OVCAR-4 13.7 µM | ACHN 2.64 µM | CAKI-1 15.2 µM | BT-549 34.5 µM | MDA-MB-231 8.97 µM | EKVX 28.8 µM | SK-MEL-5 > 100 µM | NCI/ADR-RES 17.9 µM | OVCAR-5 57.5 µM | SK-OV-3 2.14 µM | OVCAR-8 9.62 µM | Hs-578T 7.83 µM | MDA-N > 100 µM | NCI-H460 14.6 µM | HCC 2998 > 100 µM | SF-295 8.38 µM | IGROV-1 29.2 µM | SNB-75 15.3 µM | SK-MEL-2 > 96.6 µM

CCOC(=O)c1cn2c(ccc3sc4ccccc4c(=O)c32)n1
inactive: ACHN > 100 µM | CAKI-1 > 100 µM | BT-549 > 100 µM | MDA-MB-231 > 100 µM | EKVX > 100 µM | SK-MEL-5 > 100 µM | NCI/ADR-RES > 100 µM | OVCAR-5 > 100 µM | OVCAR-8 > 100 µM | Hs-578T > 100 µM | A498 > 100 µM | MDA-N > 100 µM | NCI-H460 > 100 µM | HCC 2998 > 100 µM | SF-295 > 100 µM | IGROV-1 > 100 µM | SNB-75 > 100 µM

O=c1c(C(c2ccc(-c3ccccc3)cc2)c2c(O)oc3ccccc3c2=O)c(O)oc2ccccc12
inactive: OVCAR-4 35.1 µM | ACHN 26.7 µM | CAKI-1 19.9 µM | BT-549 19.2 µM | MDA-MB-231 23.3 µM | EKVX 46.6 µM | SK-MEL-5 28.7 µM | NCI/ADR-RES 21.6 µM | OVCAR-8 17.2 µM | Hs-578T 24.4 µM | A498 31 µM | MDA-N 19.4 µM | NCI-H460 18.9 µM | HCC 2998 15.6 µM | IGROV-1 34.8 µM | SNB-75 24.5 µM | SK-MEL-2 22.5 µM

CN1C[C@H](C(=O)N[C@]2(C)O[C@@]3(O)[C@@H]4CCCN4C(=O)[C@H](Cc4ccccc4)N3C2=O)C=C2c3cccc4[nH]cc(c34)C[C@H]21 [ERGOTAMINE TARTRATE]
inactive: OVCAR-4 20.7 µM | ACHN 21.8 µM | CAKI-1 26.4 µM | BT-549 20.9 µM | MDA-MB-231 19.2 µM | EKVX 30.8 µM | SK-MEL-5 14.2 µM | NCI/ADR-RES 26.3 µM | OVCAR-5 20.2 µM | SK-OV-3 29.9 µM | OVCAR-8 19.3 µM | Hs-578T 10.2 µM | A498 15 µM | MDA-N 18.5 µM | SF-295 19.3 µM | IGROV-1 20 µM | SNB-75 35.6 µM | SK-MEL-2 17.4 µM
